Measurements reported in patent publication US20160039880A1 (priority 2012, published 2016).
In brackets after ≈: the same amount, converted by molar mass. Like-named read-outs stand apart in the source and are kept apart here.

Experiments:
[1] = Water Solubility Assay (measured in pH 7.8 buffer); format: physicochemical; settings: for Water Solubility Assay: pH 7.8;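 as to all read-outs here: precipitation onset detected as rise in absorbance at 650 nm across increasing concentrations, after shaking for 18 h, blank wells receiving DMSO only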
[2] = target: Calcineurin (Homo sapiens, UniProt P62937+P63098+Q08209)
[3] = target: T1, Human recombinant cyclophilin A (Cyp A) (Homo sapiens, UniProt P62937); experiment: Protease-free PPIase assay;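 also: cis to trans isomerization of SUC-AAPF-pNA by 2 nM enzyme, read as absorbance at 330 nm over 300 s at 10 °C, catalytic rate corrected for uncatalyzed background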
[4] = target: T1, Human recombinant cyclophilin A (Cyp A)

Calcineurin, sequence (P63098 whole entry, other chains not shown): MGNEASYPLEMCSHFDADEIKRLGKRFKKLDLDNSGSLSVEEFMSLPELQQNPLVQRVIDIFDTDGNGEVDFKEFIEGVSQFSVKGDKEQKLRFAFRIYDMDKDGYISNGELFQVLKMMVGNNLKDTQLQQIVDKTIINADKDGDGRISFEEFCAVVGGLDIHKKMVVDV
Calcineurin, sequence (P62937 whole entry, other chains not shown): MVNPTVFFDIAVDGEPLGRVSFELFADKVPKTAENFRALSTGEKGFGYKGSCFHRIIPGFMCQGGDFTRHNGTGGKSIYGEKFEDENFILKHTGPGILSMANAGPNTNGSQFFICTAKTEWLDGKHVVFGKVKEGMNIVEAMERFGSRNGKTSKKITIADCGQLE
T1 sequence (P62937 whole entry): as the sequence (P62937 whole entry, other chains not shown) above

SMILES | solubility at 18 h ([1]; 25 °C, pH 7.8, aqueous buffer, kinetic from dmso stock) [µM] | immunosuppressive potential [2] | Ki [3] [nM] | Water Solubility Assay [1] [µM] | Ki [4] [nM]
CC[C@H]1NC(=O)[C@@H]([C@H](O)[C@H](C)CCN2CCC(F)(F)C2)N(C)C(=O)[C@@H](C(C)C)N(C)C(=O)[C@@H](CC(C)C)N(C)C(=O)[C@@H](CC(C)C)N(C)C(=O)[C@H](C)NC(=O)[C@@H](C)NC(=O)[C@@H](CC(C)C)N(C)C(=O)[C@@H](C(C)C)NC(=O)[C@H](CC(C)C)N(C)C(=O)[C@@H](CO)N(C)C1=O [Compound EP] | 50 to 75 (≈ 65.6 to 98.4 µg/mL) | more immunosuppressive potential than others | 3.4 | – | –
CC[C@H]1NC(=O)[C@@H]([C@H](O)[C@H](C)CCN2CC(F)(F)C(F)(F)C2)N(C)C(=O)[C@@H](C(C)C)N(C)C(=O)[C@@H](CC(C)C)N(C)C(=O)[C@@H](CC(C)C)N(C)C(=O)[C@H](C)NC(=O)[C@@H](C)NC(=O)[C@@H](CC(C)C)N(C)C(=O)[C@@H](C(C)C)NC(=O)[C@H](CC(C)C)N(C)C(=O)[C@@H](C)N(C)C1=O [Compound ER, [(3R,4R,5S)-4-Hydroxy-3-methyl-5-(methylamino)-1-(3,3,4,4-tetrafluoro-pyrrolidin-1-yl)-hexanoic acid]^1[(R)-methyl-Sar]^3 cyclosporin A] | – | more immunosuppressive potential than others | – | 25 to 50 | 6.7
CCC1NC(=O)C(C(O)C(C)CCN(CCC(F)(F)F)CCC(F)(F)F)N(C)C(=O)C(C(C)C)N(C)C(=O)C(CC(C)C)N(C)C(=O)C(CC(C)C)N(C)C(=O)C(C)NC(=O)C(C)NC(=O)C(CC(C)C)N(C)C(=O)C(C(C)C)NC(=O)C(CC(C)C)N(C)C(=O)C(C)N(C)C1=O [Compound EQ, (3R,4R,5S)-1-[Bis-(3,3,3-trifluoro-propyl)-amino]-[(4-Hydroxy-3-methyl-5-(methylamino)-hexanoic acid]^1[(R)-methyl-Sar]^3 cyclosporin A] | – | more immunosuppressive potential than others | – | 25 to 50 | 4.6
CC[C@H]1NC(=O)[C@@H]([C@H](O)[C@H](C)CCN2CC(F)(F)C2)N(C)C(=O)[C@@H](C(C)C)N(C)C(=O)[C@@H](CC(C)C)N(C)C(=O)[C@@H](CC(C)C)N(C)C(=O)[C@H](C)NC(=O)[C@@H](C)NC(=O)[C@@H](CC(C)C)N(C)C(=O)[C@@H](C(C)C)NC(=O)[C@H](CC(C)C)N(C)C(=O)[C@@H](C)N(C)C1=O [Compound EM, [(3R,4R,5S)-(3,3-Difluoro-azetidin-1-yl)-4-hydroxy-3-methyl-5-(methylamino)-1-hexanoic acid]^1[(R)-methyl-Sar]^3 cyclosporin A] | – | more immunosuppressive potential than others | – | 75 to 100 | 9.5
CC[C@H]1NC(=O)[C@@H]([C@H](O)[C@H](C)CCN2CCC(F)(F)CC2)N(C)C(=O)[C@@H](C(C)C)N(C)C(=O)[C@@H](CC(C)C)N(C)C(=O)[C@@H](CC(C)C)N(C)C(=O)[C@H](C)NC(=O)[C@@H](C)NC(=O)[C@@H](CC(C)C)N(C)C(=O)[C@@H](C(C)C)NC(=O)[C@H](CC(C)C)N(C)C(=O)[C@@H](C)N(C)C1=O [Compound EN, [(3R,4R,5S)-(4,4-Difluoro-piperidin-1-yl)-4-hydroxy-3-methyl-5-(methylamino)-1-hexanoic acid]^1[(R)-methyl-Sar]^3 cyclosporin A] | – | more immunosuppressive potential than others | – | 25 to 50 | 6.7
CC[C@H]1NC(=O)[C@@H]([C@H](O)[C@H](C)CCN2CCC(F)(F)C2)N(C)C(=O)[C@@H](C(C)C)N(C)C(=O)[C@@H](CC(C)C)N(C)C(=O)[C@@H](CC(C)C)N(C)C(=O)[C@H](C)NC(=O)[C@@H](C)NC(=O)[C@@H](CC(C)C)N(C)C(=O)[C@@H](C(C)C)NC(=O)[C@H](CC(C)C)N(C)C(=O)[C@@H](C)N(C)C1=O [Compound EL, [(3R,4R,5S)-(3,3-Difluoro-pyrrolidin-1-yl)-4-Hydroxy-3-methyl-5-(methylamino)-1-hexanoic acid]^1[(R)-methyl-Sar]^3 cyclosporin A] | – | more immunosuppressive potential than others | – | 75 to 100 | 10
CC[C@H]1NC(=O)[C@@H]([C@H](O)[C@H](C)CCN2CC(F)(F)OC(F)(F)C2)N(C)C(=O)[C@@H](C(C)C)N(C)C(=O)[C@@H](CC(C)C)N(C)C(=O)[C@@H](CC(C)C)N(C)C(=O)[C@H](C)NC(=O)[C@@H](C)NC(=O)[C@@H](CC(C)C)N(C)C(=O)[C@@H](C(C)C)NC(=O)[C@H](CC(C)C)N(C)C(=O)[C@@H](C)N(C)C1=O [Compound EK, [(3R,4R,5S)-4-Hydroxy-3-methyl-5-(methylamino)-1-(2,2,6,6-tetrafluoro-morpholin-4-yl)-hexanoic acid]^1[(R)-methyl-Sar]^3 cyclosporin A] | – | more immunosuppressive potential than others | – | 25 to 50 | 12
